In US11572590B2, “Methods for evaluating tumor cell spheroids using 3D microfluidic cell culture device” (Dana-Farber Cancer Institute, Inc., priority 2017, dated 2023) one finds inhibition data, which are given here for one compound.

SMILES strings stand for the structures. Where two headings read alike, the source gives them in different places.

What all share (assay): SelectScreen Kinase Profiling, single point inhibition and IC50 for off-target kinases
Holding throughout (format): biochemical

Test [1] deals with off-target kinases (Homo sapiens, UniProt P10721, D816V). As to conditions: KIT D816V, LanthaScreen Binding.
off-target kinases (Homo sapiens, UniProt P10721, D816V), sequence (P10721 26-976 D816V): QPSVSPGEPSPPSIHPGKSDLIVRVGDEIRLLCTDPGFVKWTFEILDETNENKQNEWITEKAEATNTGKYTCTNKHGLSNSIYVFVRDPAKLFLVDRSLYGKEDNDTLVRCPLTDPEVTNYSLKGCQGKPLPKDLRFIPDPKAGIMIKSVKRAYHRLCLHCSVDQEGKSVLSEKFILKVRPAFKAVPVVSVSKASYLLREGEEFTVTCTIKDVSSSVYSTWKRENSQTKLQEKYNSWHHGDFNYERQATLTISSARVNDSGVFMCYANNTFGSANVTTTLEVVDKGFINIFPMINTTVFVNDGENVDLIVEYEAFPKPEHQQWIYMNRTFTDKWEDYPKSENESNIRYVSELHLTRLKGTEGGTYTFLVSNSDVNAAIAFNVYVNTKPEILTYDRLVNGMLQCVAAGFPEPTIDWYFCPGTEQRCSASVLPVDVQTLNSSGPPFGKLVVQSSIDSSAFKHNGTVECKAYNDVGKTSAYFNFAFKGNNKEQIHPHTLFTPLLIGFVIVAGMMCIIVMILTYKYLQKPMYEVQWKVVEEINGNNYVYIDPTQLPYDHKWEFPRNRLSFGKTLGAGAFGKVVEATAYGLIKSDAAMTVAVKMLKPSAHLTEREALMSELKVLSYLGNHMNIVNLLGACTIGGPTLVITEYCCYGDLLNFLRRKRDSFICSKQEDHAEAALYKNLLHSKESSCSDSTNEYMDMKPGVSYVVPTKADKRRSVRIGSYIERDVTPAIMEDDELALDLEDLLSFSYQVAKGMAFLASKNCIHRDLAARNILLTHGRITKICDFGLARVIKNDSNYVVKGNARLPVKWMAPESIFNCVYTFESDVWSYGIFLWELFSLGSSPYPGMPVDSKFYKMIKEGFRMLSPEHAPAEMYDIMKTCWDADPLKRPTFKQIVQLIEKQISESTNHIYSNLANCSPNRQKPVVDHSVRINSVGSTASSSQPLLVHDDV
The target of test [2] is off-target kinases (Homo sapiens, UniProt Q9BYP7).
off-target kinases (Homo sapiens, UniProt Q9BYP7), sequence (Q9BYP7 whole entry): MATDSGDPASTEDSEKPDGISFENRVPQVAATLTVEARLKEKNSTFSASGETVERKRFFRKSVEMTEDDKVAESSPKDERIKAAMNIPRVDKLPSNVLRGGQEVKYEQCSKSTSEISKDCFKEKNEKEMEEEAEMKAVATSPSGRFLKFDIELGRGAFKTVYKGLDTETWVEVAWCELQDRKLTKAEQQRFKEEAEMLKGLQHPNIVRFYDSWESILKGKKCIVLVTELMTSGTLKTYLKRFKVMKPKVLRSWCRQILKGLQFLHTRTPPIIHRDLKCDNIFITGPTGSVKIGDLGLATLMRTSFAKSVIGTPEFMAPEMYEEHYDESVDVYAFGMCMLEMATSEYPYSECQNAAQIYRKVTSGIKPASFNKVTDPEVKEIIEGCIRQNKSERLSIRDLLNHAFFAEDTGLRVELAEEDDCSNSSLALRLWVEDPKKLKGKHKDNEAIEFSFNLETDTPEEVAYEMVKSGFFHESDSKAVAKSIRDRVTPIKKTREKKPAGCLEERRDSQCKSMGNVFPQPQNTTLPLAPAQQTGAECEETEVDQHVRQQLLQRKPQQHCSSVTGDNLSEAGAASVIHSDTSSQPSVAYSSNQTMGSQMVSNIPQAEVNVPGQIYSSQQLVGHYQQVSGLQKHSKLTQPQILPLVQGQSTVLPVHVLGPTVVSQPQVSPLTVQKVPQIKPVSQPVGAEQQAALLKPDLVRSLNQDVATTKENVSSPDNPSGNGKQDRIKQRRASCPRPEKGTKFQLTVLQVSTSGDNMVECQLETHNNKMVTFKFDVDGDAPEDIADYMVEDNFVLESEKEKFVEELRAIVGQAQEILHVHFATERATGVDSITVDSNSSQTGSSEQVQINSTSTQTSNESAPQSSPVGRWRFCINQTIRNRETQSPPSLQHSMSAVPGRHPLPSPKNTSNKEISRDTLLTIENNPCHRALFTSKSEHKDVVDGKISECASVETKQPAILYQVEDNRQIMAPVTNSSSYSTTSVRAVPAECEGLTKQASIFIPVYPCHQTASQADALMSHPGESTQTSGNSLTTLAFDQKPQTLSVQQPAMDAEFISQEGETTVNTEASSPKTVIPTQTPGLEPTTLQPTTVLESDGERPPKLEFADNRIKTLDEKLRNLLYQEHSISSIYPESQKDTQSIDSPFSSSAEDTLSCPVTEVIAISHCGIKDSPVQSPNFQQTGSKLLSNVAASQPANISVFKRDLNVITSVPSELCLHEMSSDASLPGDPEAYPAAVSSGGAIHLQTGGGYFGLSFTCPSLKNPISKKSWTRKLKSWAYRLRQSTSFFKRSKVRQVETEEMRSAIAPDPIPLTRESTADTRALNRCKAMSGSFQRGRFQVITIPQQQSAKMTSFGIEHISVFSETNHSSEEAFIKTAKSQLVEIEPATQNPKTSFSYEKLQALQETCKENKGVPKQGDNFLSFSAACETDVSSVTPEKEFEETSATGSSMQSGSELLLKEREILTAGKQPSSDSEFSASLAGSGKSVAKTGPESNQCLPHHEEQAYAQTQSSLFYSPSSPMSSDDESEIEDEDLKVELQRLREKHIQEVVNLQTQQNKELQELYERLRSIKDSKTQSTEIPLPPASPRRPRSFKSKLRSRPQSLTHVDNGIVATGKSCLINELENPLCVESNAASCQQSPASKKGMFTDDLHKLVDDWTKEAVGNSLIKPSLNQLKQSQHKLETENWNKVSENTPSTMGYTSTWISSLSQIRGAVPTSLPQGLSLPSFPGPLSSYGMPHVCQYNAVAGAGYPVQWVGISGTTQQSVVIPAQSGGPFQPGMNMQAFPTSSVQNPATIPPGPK
Test [3] has as its target T1, off-target kinases (Homo sapiens, UniProt P29320).
T1 sequence (P29320 21-983): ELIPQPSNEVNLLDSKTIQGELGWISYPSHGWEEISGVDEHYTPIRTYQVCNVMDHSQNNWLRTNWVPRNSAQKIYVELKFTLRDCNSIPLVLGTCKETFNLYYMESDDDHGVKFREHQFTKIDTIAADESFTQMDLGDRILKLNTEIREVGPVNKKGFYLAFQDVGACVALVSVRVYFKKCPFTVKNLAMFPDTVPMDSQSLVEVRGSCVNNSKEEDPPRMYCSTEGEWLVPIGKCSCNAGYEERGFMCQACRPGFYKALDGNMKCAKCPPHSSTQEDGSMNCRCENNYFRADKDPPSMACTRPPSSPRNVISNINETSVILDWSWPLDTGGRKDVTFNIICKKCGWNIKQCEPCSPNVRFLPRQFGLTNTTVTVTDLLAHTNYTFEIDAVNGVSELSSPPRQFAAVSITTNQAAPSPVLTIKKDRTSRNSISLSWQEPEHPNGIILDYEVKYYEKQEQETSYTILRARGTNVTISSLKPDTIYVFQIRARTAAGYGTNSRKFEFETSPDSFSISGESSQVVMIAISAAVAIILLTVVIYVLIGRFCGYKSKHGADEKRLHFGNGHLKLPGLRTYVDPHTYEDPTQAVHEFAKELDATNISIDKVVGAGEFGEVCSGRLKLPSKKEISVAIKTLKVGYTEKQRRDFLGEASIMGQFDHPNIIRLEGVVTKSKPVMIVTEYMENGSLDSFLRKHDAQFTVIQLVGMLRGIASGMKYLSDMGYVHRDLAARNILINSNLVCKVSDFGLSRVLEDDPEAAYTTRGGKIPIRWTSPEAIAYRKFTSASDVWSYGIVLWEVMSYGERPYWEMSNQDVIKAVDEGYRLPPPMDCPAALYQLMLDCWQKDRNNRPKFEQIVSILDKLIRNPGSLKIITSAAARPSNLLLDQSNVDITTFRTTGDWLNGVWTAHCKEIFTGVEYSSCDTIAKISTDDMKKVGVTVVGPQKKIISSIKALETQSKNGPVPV
The settings on record: EPHA3, LanthaScreen Binding.

Test [4] concerns the target T2, off-target kinases (Homo sapiens, UniProt P53778).
T2 sequence (P53778 1-367): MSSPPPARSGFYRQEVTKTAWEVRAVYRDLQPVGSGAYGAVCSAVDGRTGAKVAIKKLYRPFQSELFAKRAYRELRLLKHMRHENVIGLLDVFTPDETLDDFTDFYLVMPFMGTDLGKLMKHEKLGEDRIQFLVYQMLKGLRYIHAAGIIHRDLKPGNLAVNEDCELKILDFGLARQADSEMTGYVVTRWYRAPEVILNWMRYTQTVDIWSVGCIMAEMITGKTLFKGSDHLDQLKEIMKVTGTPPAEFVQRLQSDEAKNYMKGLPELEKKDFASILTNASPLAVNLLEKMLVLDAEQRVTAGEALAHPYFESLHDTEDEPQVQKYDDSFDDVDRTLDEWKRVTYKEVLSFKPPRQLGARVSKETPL
The settings on record: MAPK12 (p38 gamma), ZLYTE, ATP Km app.

With `N#Cc1cc(-c2ncnc(Nc3ccc(N4CCN(C5COC5)CC4)cc3)n2)ccc1OC1CCOCC1` [Compound 1, 5-(4-((4-(4-(oxetan-3-yl)piperazin-1-yl)phenyl)amino)-1,3,5-triazin-2-yl)-2-((tetrahydro-2H-pyran-4-yl)oxy)benzonitrile], the inhibition is 83% at off-target kinases [1] (read-out: % Inhibition 1); 83% at off-target kinases [1] (read-out: % Inhibition 2); 83% on off-target kinases [1] (read-out: % Inhibition Avg); -3% on off-target kinases [2] (WNK3, LanthaScreen Binding, read-out: % Inhibition 1); -2% at off-target kinases [2] (WNK3, LanthaScreen Binding, read-out: % Inhibition Avg); 0% at off-target kinases [2] (read-out: % Inhibition 2). Moreover, the inhibition on off-target kinases [3] (read-out: % Inhibition 1) came to 6%; on off-target kinases [3] (read-out: % Inhibition 2), 3%; at off-target kinases [3] (read-out: % Inhibition Avg), 4%; on off-target kinases [4] (read-out: % Inhibition 1), 4%; on off-target kinases [4] (read-out: % Inhibition 2), 3%; at off-target kinases [4] (read-out: % Inhibition Avg), 3%.
